Assay results published in paper PMC9583845, “Characterization of the chicken melanocortin 5 receptor and its potential role in regulating hepatic glucolipid metabolism” (Frontiers in Physiology, 2022).
“Also recorded” adds a separate entry of the source. Read-outs that look alike come from different tables or passages of the source.

How the values were obtained:
[1] = biological target: T1, chicken MC5R (Gallus gallus, UniProt O73671); experiment: pGL3-CRE-luciferase reporter assay, CHO cells expressing chicken MC5R; assay type: cell-based; conditions: for ability to activate / sensitivity of cMC5R (in words, ranking): CHO cells expressing cMC5R; for EC50: Figure 2B, CHO cells transiently expressing cMC5R, 10^−12–10^−6 M, 6 h, mean ± SEM of three replicates (N = 3), representative of three independent experiments, read-out: EC50 (activation of cMC5R)
T1 sequence (O73671 1-325): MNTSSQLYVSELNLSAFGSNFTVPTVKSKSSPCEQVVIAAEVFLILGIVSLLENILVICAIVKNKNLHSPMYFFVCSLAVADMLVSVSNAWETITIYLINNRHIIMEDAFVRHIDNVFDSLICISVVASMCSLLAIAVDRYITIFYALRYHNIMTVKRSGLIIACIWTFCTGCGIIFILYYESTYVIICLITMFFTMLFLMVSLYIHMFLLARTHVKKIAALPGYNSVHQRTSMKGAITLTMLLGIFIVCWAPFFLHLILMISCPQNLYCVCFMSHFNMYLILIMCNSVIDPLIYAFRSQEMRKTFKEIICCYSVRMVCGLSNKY
Description: All chemicals were purchased from Sigma-Aldrich (St. Louis, MO, United States) and the restriction enzymes were obtained from TaKaRa (Dalian, China). […] All primers used in this study were synthesized by Beijing Genome Institute (BGI, China) and listed in Supplementary Table 1.
The expression plasmids encoding MC5R, MRAP1 and MRAP2 were established by cloning their entire open reading frame (ORF) into the pcDNA3.1 (+) expression vector (Invitrogen).
The cells were then transfected with a mixture containing 700 ng pGL3-CRE-Luciferase reporter construct, 200 ng of receptor expression plasmid (or empty pcDNA3.1 vector as a negative control), 20 ng of pRL-TK construct (containing a Renilla luciferase gene, used as an internal control), and 2 μl jetPRIME transfection reagent (Polyplus Transfection, Illkirch, France) in 200 μL buffer. […] After removal of the medium from the 96-well plate, the cells were treated with 100 μl ligand-containing medium (or ligand-free medium) for 6 h. Finally, CHO cells were lysed with 1 × passive lysis buffer for luciferase assay (Promega) and the luciferase activity of the cell lysate was measured by a Multimode Microplate Reader (TriStar LB941, EG&G Berthold, Germany) according to the manufacturer’s instruction.
All statistical analysis was performed using GraphPad Prism 9 (Graph Pad Software Inc., San Diego, CA). The dose-response curves were constructed using nonlinear regression models. Student’s test was used to compare two groups, for more than two groups one-way ANOVA was performed followed by Dunnett’s test. To validate our results, all in-vitro experiments were repeated three times, and representative data are reported.

[2] = test system: AC/cAMP/PKA signaling (cMC5R); experiment: Inhibition of ACTH- or α-MSH-stimulated luciferase activity in CHO cells expressing cMC5R; assay type: cell-based, chicken; conditions: for inhibition of ACTH-stimulated luciferase activity: inhibitor (H89 10 μM, MDL 5 μM) added 0.5 h before ACTH (10 nM, 6 h), Figure 2E; for inhibition of α-MSH-stimulated luciferase activity: inhibitor (H89 10 μM, MDL 5 μM) added 0.5 h before α-MSH (10 nM, 6 h), Figure 2F
Method: In brief, CHO cells were cultured on a six-well plate (Nunc, Roskilde, Denmark) and grown for 24 h before transfection. The cells were then transfected with a mixture containing 700 ng pGL3-CRE-Luciferase reporter construct, 200 ng of receptor expression plasmid (or empty pcDNA3.1 vector as a negative control), 20 ng of pRL-TK construct (containing a Renilla luciferase gene, used as an internal control), and 2 μl jetPRIME transfection reagent (Polyplus Transfection, Illkirch, France) in 200 μL buffer. Twenty-four hours later, CHO cells were sub-cultured into a 96-well plate at 37°C for an additional 24 h before treatment. After removal of the medium from the 96-well plate, the cells were treated with 100 μl ligand-containing medium (or ligand-free medium) for 6 h. Finally, CHO cells were lysed with 1 × passive lysis buffer for luciferase assay (Promega) and the luciferase activity of the cell lysate was measured by a Multimode Microplate Reader (TriStar LB941, EG&G Berthold, Germany) according to the manufacturer’s instruction.
To test whether cMRAP1 and cMRAP2 can alter the pharmacological properties of cMC5R, CHO cells co-expressing MC5R and cMRAP1/cMRAP2 were treated with chicken ACTH1–39/α-MSH, and the relative potential of these two peptides to activate the receptor was also determined using the pGL3-CRE-luciferase reporter system. At the same time, H89 (a PKA inhibitor, 10 μM) and MDL12330 A (an AC inhibitor, 5 μM) were used to further determine the signal pathways activated by ACTH1-39/α-MSH.

[3] = test system: THRSPA mRNA, primary chicken hepatocytes; experiment: THRSPA mRNA in primary chicken hepatocytes, RT-qPCR; assay type: cell-based; conditions: 6 h, N = 4, Figures 8D-F
Method: (§1) To evaluate the effect of ACTH1-39 on chicken liver, the chicken hepatocytes were prepared and maintained as a monolayer culture. Briefly, one-month-old male chicken hepatocytes were isolated by perfusion of a liver with Ca^2+-free KRB buffer to remove blood cells, and being digested with 0.25% collagenase-I for 10 min. Hepatocytes were obtained following filtering and washing using M199 medium. Then the hepatocytes were plated in a Corning CellBIND 48-well microplate (Corning, NY, cat. no.3338) with M199 medium containing 100 U/ml penicillin and […] streptomycin (Gibco), 5 μg/ml bovine insulin (Sigma), and 5% FBS at 37°C in a 5% CO2 atmosphere. To adhere to the wall, the cells were incubated on the 48-well plate for 4 h.
(§2) For quantitative real-time PCR, primary cultured chicken hepatocytes were treated with various concentrations of ACTH1-39 (or other composition) at 37°C for 6 h. The relative amount of mRNA was calculated using the comparative Ct method. Chicken β-actin gene was used as the reference gene. Amplification of specific transcripts was confirmed by analyzing the melting curve profile performed at the end of each run and by determining the size of the PCR products using agarose electrophoresis and ethidium bromide staining.

[4] = test system: MC5R mRNA, primary chicken hepatocytes; experiment: MC5R mRNA in primary chicken hepatocytes, RT-qPCR; assay type: cell-based; conditions: primary chicken hepatocytes, 6 h, N = 4, vs β-actin, Figures 6C-E
Method: as §1, with “h. For quantitative real-time PCR, primary cultured chicken hepatocytes were treated with various concentrations of ACTH1-39 (or other composition) at 37°C for 6 h. The relative amount of mRNA was calculated using the comparative Ct method. Chicken β-actin gene was used as the reference gene. Amplification of specific transcripts was confirmed by analyzing the melting curve profile performed at the end of each run and by determining the size of the PCR products using agarose electrophoresis and ethidium bromide staining.” for “h.”

[5] = test system: ELOVL6 mRNA, primary chicken hepatocytes; experiment: ELOVL6 mRNA in primary chicken hepatocytes, RT-qPCR; assay type: cell-based; conditions: 6 h, N = 4, Figures 8A-C
Method: as §1, §2

[6] = test system: chicken MC5R D204A; conditions: ref Min et al., 2019; cited from earlier work
[7] = test system: chicken MC5R D119A; conditions: ref Min et al., 2019; cited from earlier work
[8] = test system: hMC5R + MRAP2; conditions: in vitro; ref Chan et al., 2009; cited from earlier work
Description: Our results were consistent with previous results. […] In zebrafish, MRAP2a decreased the surface expression and efficacy of MC5Ra/MC5Rb, but not MRAP2b, in the same manner as mouse MRAP2 did ([Zhu et al., 2019]). In ricefield eel (Monopterus albus), two isoforms of MRAP2 (maMRAP2X1 and maMRAP2X2) significa ...

[9] = test system: chicken MC5R F254A; conditions: ref Min et al., 2019; cited from earlier work
[10] = test system: chicken MC2R + MRAP1; conditions: co-expressed with MRAP1 in CHO cells; ref Barlock et al., 2014; cited from earlier work
Description: In the chicken genome, there are five paralogous MCRs and two MRAPs ([Ling et al., 2004]; [Barlock et al., 2014]; [Zhang et al., 2017]; [Thomas et al., 2018]). In recent years, the pharmacological characterization and physiological activity of chicken MCRs (cMCRs) have been widely explored ([Scanes and Pierzchala-Koziec, 2021]). […] MC1R of dark-feathered chickens with a Glu to Lys mutation at position 92 show ...

[11] = biological target: chicken MC5R + MRAP2 (Gallus gallus, UniProt O73671); design: method as in Thomas et al., 2018; conditions: ref Thomas et al., 2018; cited from earlier work
chicken MC5R + MRAP2, sequence (O73671 1-325): as above
chicken MC5R + MRAP2, sequence (A0A140B2F4 1-206 partner): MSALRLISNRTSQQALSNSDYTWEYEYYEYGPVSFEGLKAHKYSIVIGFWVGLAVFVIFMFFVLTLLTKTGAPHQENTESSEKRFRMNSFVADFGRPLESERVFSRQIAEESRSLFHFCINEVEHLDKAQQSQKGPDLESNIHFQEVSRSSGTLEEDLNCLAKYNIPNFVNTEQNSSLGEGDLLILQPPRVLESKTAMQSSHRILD

[12] = test system: human MC5R; conditions: ref Schioth et al., 1997; Ling et al., 2004; cited from earlier work
Description: The luciferase reporter system was then employed to investigate the signal pathway of MC5R coupling. […] Human peptides have previously been ...

[13] = test system: MC5R orthologs + MRAP1; conditions: ref Dores et al., 2018, Barney et al., 2019, 2020, Hoglin et al., 2022; cited from earlier work
Description: (§3) Since the R15K and I20 V substitutions in chicken and human ACTH occur in/near the KKRRP motif (Figure 2A), it might lead to different regulatory effects o ...

[14] = biological target: chicken MC5R + MRAP1 (Gallus gallus, UniProt O73671); conditions: 2020, cited from earlier work; for effect of MRAP1 on cMC5R sensitivity: CHO cells, ref Thomas et al., 2018, Dores et al.
chicken MC5R + MRAP1, sequence (O73671 1-325): as the sequence (O73671 1-325) above
Description: as §3

[15] = biological target: T1, chicken MC5R; design: method as in 3 sources, ref Ling et al., 2004 ||| ref Dores et al., 2020 ||| ref Schioth et al., 1997; Ling et al., 2004; conditions: cited from earlier work; for EC50 values / potency at chicken MC5R compared (in words): human α-MSH vs ACTH1-24, ref Ling et al.; for EC50 values / potency at chicken MC5R compared (in words) / ability of hACTH1-39 vs hACTH1-24 to activate chicken MC5R: 2004; for ability of hACTH1-39 vs hACTH1-24 to activate chicken MC5R: ref Schioth et al., 1997, Ling et al.

## H-DGGSYRMRHFRWHAPLKD-OH [β-MSH]
[1]
  ability to activate / sensitivity of cMC5R (in words, ranking): ACTH1-39 ≈ α-MSH > β-MSH > γ-MSH
  EC50: 38.7 ± 6.51 nM

## Cl.c1ccc(C2CCCC2NC2=NCCCCCCCCCCC2)cc1 (centres unmarked) [MDL12330 A]
[2]
  inhibition of ACTH-stimulated luciferase activity: significantly inhibit
  inhibition of α-MSH-stimulated luciferase activity: significantly inhibit

## O=S(=O)(NCCNC/C=C/c1ccc(Br)cc1)c1cccc2cnccc12 [H89]
[2]
  inhibition of ACTH-stimulated luciferase activity: significantly inhibit
  inhibition of α-MSH-stimulated luciferase activity: significantly inhibit

## Nc1ncnc2c1nc(Br)n2[C@@H]1O[C@@H]2COP(=O)(O)O[C@H]2[C@H]1O [8-Br-cAMP]
[3]
  THRSPA mRNA expression: not affected; also recorded: did not affect the expression
[4]
  MC5R mRNA abundance (in words): dose-dependent increase in MC5R mRNA abundance; also recorded: enhance the expression of MC5R in cultured hepatocytes in a dose-dependent manner
[5]
  ELOVL6 mRNA expression: not affected; also recorded: did not affect the expression

## SHU9119
[6]
  response of D204A mutant: completely unresponsive
[7]
  response of D119A mutant: completely unresponsive

## C=C[C@@]1(C)CC(=O)[C@]2(O)[C@@]3(C)[C@@H](O)CCC(C)(C)[C@@H]3[C@H](O)[C@H](OC(C)=O)[C@@]2(C)O1 [forskolin]
[3]
  THRSPA mRNA expression: did not affect the expression
[3]; listed as Forskolin
  THRSPA mRNA expression: not affected
[4]
  MC5R mRNA abundance (in words): significantly increased MC5R mRNA abundance; also recorded: enhance the expression of MC5R in cultured hepatocytes in a dose-dependent manner
[5]
  ELOVL6 mRNA expression: did not affect the expression
[5]; listed as Forskolin
  ELOVL6 mRNA expression: not affected

## Ac-YVMSHFRWNKF-NH2 [γ-MSH]
[1]
  ability to activate / sensitivity of cMC5R (in words, ranking): ACTH1-39 ≈ α-MSH > β-MSH > γ-MSH
  EC50: 144 ± 15.4 nM

## NDP-MSH
[6]
  response of D204A mutant: completely unresponsive
[8]
  efficacy at hMC5R with MRAP2: reduced the efficacy of hMC5R to NDP-MSH
[7]
  response of D119A mutant: completely unresponsive
[9]
  reactivity of F254A mutant: significantly reduced the reactivity

## human ACTH1-24: shortened form of hACTH1-39 used in cited studies
[10]
  activation of cMC2R: can be activated by ACTH1-24
[11]
  effect of MRAP2 on cMC5R sensitivity: no influence on cMC5R sensitivity to human ACTH1–24
[12]
  ability of hACTH1-39 vs hACTH1-24 to activate human MC5R: no different
[13]
  effect of MRAP1 co-expression on sensitivity of MC5R orthologs: increase sensitivity to ACTH1-24
[14]
  effect of MRAP1 on cMC5R sensitivity: improved chicken MC5R sensitivity to human ACTH1-24
[14]; listed as hACTH1–24
  effect of MRAP1 on cMC5R sensitivity: significantly increased the sensitivity of cMC5R to hACTH1–24
[14]; KKRRP motif of hACTH1–24 necessary, ref Dores et al.
  increase of MC5R sensitivity to hACTH1–24 with cMRAP1: ~1,000 fold
[15]
  EC50 values / potency at chicken MC5R compared (in words): equal potency for chicken MC5R
  ability of hACTH1-39 vs hACTH1-24 to activate chicken MC5R: no different
[15]; listed as ACTH1-24
  EC50 values / potency at chicken MC5R compared (in words): equivalent
[15]; srACTH1–24 has R15 and I20, ref Dores et al., 2020
  EC50 compared, hACTH1-24 vs srACTH1–24: no statistical differences in the EC50 values

## hACTH1-39: human ACTH1-39 (SYSMEHFRWGKPVGKKRRPVKVYPNGAEDESAEAFPLEF; Corticotropin; UniProt P01189 138-176, looked up)
[12]
  ability of hACTH1-39 vs hACTH1-24 to activate human MC5R: no different
[15]
  ability of hACTH1-39 vs hACTH1-24 to activate chicken MC5R: no different
